Here are results for two molecules from patent US20250276957A1, “CRYSTALLINE FORMS OF AN IL-17 INHIBITOR” (Novartis AG, priority 2022, published 2025).

pIC50: −log10 of the molar value.

One series concerns the target T1, Human IL-17A x IL-17RA (Homo sapiens, UniProt Q16552).
T1 sequence (Q16552 24-155): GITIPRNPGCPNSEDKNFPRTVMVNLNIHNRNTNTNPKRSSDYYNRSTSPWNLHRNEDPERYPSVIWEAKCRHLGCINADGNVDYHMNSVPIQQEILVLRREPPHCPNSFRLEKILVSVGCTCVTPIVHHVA
The conditions noted are these: biotinylated human IL-17A 5 nM, AF647-labeled human IL-17RA 30 nM; read-out: IL17AA FRET/IL17Rawt IC50; cited from earlier work.

The nature of series [1]: Dynamic vapor sorption (DVS) and stability at ambient temperature and humidity. Type of series: physicochemical. The conditions noted are these: water loss occurs quickly during handling. The text has this:
Due to the unstable nature of hydrate HA at ambient temperature and humidity, water loss occurs quickly during handling of the samples and the high water content observed by DVS analysis was not seen in DSC or TGA analysis. This water loss behavior is considered to explain the different DSC and TGA results for the two hydrate HA samples.

`Cc1cc[n+]([O-])c(C)c1-c1ccc(NC(=O)[C@@H](NC(=O)c2ccnn2C)[C@H]2CCCc3ccccc32)cc1` [2,4-dimethyl-3-(4-((S)-2-(1-methyl-1H-pyrazole-5-carboxamido)-2-((S)-1,2,3,4-tetrahydronaphthalen-1-yl)acetamido)phenyl)pyridine 1-oxide]: on Human IL-17A x IL-17RA, the pIC50 is 8.10.
On to `Cc1cc[n+]([O-])c(C)c1-c1ccc(NC(=O)[C@@H](NC(=O)c2ccnn2C)[C@H]2CCCc3ccccc32)cc1` [hydrate HA, 2,4-dimethyl-3-(4-((S)-2-(1-methyl-1H-pyrazole-5-carboxamido)-2-((S)-1,2,3,4-tetrahydronaphthalen-1-yl)acetamido)phenyl)pyridine 1-oxide], for which the “stability at ambient temperature and humidity” value in series [1] was “unstable”.
